In paper PMC5761851, “Application of a phenotypic drug discovery strategy to identify biological and chemical starting points for inhibition of TSLP production in lung epithelial cells” (PLoS ONE, 2018):
“And” between values parts separate entries of the source, which are not always exact repeats. Equal entries are not always repeated. Where two headings read alike, the source gives them in different places. Each block holds one molecule with its values, some of them ahead of it.

Experiments:
[1] = biological target: T1, CK2α2 (Homo sapiens, UniProt P19784); assay: kinase selectivity panel; format: biochemical; conditions: read-out: percentage of control activity (POC), CK2α2
T1 construct: purchased Eurofins Pharma Discovery Services (KinaseProfiler; Cerep BioPrint panel)
In short: (§1)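 The compound is screened at 10 μM in duplicate against 125 representative kinases. Selected activities are followed up with a nine-concentration duplicate titration to give IC50.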

[2] = biological target: T2, Fms (Homo sapiens, UniProt P07333); assay: kinase selectivity panel; format: biochemical; conditions: for remaining activity at 10 µM: read-out: percentage of control activity (POC), Fms
T2 construct: purchased Eurofins Pharma Discovery Services (KinaseProfiler; Cerep BioPrint panel)
In short: as §1

[3] = biological target: T3, Plk3 (Homo sapiens, UniProt Q9H4B4); assay: kinase selectivity panel; format: biochemical; conditions: read-out: percentage of control activity (POC), Plk3
T3 construct: purchased Eurofins Pharma Discovery Services (KinaseProfiler; Cerep BioPrint panel)
In short: as §1

[4] = biological target: T4, Rsk1 (Homo sapiens, UniProt Q15418); assay: kinase selectivity panel; format: biochemical; conditions: read-out: percentage of control activity (POC), Rsk1
T4 construct: purchased Eurofins Pharma Discovery Services (KinaseProfiler; Cerep BioPrint panel)
In short: as §1

[5] = biological target: T5, PRAK (Homo sapiens, UniProt Q8IW41); assay: kinase selectivity panel; format: biochemical; conditions: read-out: percentage of control activity (POC), PRAK
T5 construct: purchased Eurofins Pharma Discovery Services (KinaseProfiler; Cerep BioPrint panel)
T5 sequence (Q8IW41 1-473): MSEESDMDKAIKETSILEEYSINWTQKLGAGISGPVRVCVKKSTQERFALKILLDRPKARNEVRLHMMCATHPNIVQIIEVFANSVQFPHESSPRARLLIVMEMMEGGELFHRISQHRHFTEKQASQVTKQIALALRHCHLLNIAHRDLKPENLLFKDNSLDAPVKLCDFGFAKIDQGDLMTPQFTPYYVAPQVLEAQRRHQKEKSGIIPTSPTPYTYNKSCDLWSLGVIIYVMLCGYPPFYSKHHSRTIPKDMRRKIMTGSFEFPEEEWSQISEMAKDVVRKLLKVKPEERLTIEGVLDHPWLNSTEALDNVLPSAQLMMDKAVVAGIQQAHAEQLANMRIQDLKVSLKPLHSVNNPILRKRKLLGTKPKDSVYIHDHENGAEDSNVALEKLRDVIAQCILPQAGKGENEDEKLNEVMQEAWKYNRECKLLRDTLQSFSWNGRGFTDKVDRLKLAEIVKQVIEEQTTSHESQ
In short: as §1

[6] = biological target: T6, ZAP-70 (Homo sapiens, UniProt P43403); assay: kinase selectivity panel; format: biochemical; conditions: read-out: percentage of control activity (POC), ZAP-70
T6 construct: purchased Eurofins Pharma Discovery Services (KinaseProfiler; Cerep BioPrint panel)
T6 sequence (P43403 1-619): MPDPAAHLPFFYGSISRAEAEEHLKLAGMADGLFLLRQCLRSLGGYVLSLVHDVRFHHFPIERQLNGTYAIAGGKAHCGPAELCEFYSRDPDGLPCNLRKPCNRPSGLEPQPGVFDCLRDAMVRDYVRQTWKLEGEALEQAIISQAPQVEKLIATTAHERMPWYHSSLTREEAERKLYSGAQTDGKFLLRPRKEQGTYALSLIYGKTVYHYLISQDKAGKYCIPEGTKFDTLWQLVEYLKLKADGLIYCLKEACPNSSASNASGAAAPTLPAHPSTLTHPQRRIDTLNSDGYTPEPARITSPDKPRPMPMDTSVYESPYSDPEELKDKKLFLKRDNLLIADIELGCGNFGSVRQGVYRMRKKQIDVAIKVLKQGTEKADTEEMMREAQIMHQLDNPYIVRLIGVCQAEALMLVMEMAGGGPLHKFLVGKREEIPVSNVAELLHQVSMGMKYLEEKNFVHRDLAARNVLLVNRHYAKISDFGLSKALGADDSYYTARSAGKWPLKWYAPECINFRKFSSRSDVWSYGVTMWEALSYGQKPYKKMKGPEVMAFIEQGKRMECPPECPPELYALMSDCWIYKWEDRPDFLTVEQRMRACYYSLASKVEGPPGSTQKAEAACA
In short: as §1

[7] = tested on: TSLP production in NHBE cells; assay: TSLP HTRF assay (TSLP production in poly I:C / IL-4 stimulated NHBE cells); format: cell-based, human
Method: For dose response curves determinations, stocks of test compounds at a concentration of 1.33x10^-3 M in DMSO were sequentially diluted at 1:4 dilution steps before further 1/50 dilution in BEBM medium containing 1x ITS and 0.1% BSA. For the highest 4 μM concentration test compounds were resuspended in DMSO at a concentration of 2.5x10^-3 M and diluted 1/25 in BEBM medium containing 1x ITS and 0.1% BSA before adding 1 μl to the wells containing the cells.
All subsequent steps were automated using a Sciclone® G3 workstation (Perkin Elmer) with a Twister™ II robot (Perkin Elmer). […] 1 μl of test compound solution prepared at 25x concentration was added to the wells containing NHBE cells. The plates were then incubated during 90 minutes at 37°C, 5% CO2, 90% humidity before adding poly I:C (Invivogen HMW Tirl-pic-5) and human IL-4 (Peprotech 200–04) stimulus in 4 μl of BEBM medium containing 1x ITS, 0.1% BSA and 0.1% DMSO using a Multidrop™. […] Cells were then incubated for 24h in the presence of test compounds and stimulus at 37°C, 5% CO2 and 90% humidity conditions. After the 24h incubation period the plates were transferred to a CyBi®-Well platform (CyBio AG) to collect 10 μl of the supernatants which were transferred to a new plate. TSLP levels in the supernatant were determined using a homogeneous Time-Resolved Fluorescence (HTRF) assay custom developed by Cisbio. The assay was based in the use of a donor dye (europium cryptate) coupled to a monoclonal anti-TSLP antibody and an acceptor dye (d2) coupled to a second polyclonal anti-TSLP antibody. […] 10 μl of the resulting solution was then used to determine TSLP levels as described above.
The standard curve was built with eight points prepared in ITS/BSA in BEBM medium without supplements, starting at 700 pg/ml and diluted 1:2, with medium alone being zero TSLP. Fitting model corresponded to equation 100 of Excel fit software. Data from the primary phenotypic screen was visualized using Vortex (Dotmatics). […] For compound selection the maximum inhibition of the two individual duplicate values was taken into account. Dose response confirmation was performed at single point in the 2 donors tested. 9 point curves were run starting at 4 μM concentration by doing serial 1:4 dilutions in cells derived from both donors.

[8] = tested on: Production of TNFα in THP-1 cells; assay: p38-dependent TNF production in THP-1 cells; format: cell-based
[9] = Homo sapiens, NHBE, 24 h, NHBE cells donor #1, poly I:C / IL-4, 24h, geometric mean, read-out: Inhibition of TSLP protein production (IC50, μM) (95% CI)
[10] = individual values, donor #1, read-out: Inhibition of TSLP production in NHBE (IC50)
[11] = Homo sapiens, THP-1, geometric mean, read-out: Activity in reference cell based assay (IC50, μM) (95% CI) Production of TNFα in THP-1 cells
[12] = Homo sapiens, THP-1, individual values, read-out: Cellular activity (IC50, mM) TNFa production in THP-1

T1 sequence (P19784 whole entry): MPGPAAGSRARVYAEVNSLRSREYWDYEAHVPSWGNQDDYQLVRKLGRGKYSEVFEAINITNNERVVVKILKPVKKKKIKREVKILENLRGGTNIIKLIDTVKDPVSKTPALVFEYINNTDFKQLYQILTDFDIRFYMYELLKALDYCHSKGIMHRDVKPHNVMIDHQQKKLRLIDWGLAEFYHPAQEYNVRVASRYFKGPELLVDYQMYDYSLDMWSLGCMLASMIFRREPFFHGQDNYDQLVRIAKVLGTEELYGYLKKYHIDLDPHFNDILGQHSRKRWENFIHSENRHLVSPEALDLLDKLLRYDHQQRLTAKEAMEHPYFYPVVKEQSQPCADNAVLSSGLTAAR
T3 sequence (Q9H4B4 whole entry): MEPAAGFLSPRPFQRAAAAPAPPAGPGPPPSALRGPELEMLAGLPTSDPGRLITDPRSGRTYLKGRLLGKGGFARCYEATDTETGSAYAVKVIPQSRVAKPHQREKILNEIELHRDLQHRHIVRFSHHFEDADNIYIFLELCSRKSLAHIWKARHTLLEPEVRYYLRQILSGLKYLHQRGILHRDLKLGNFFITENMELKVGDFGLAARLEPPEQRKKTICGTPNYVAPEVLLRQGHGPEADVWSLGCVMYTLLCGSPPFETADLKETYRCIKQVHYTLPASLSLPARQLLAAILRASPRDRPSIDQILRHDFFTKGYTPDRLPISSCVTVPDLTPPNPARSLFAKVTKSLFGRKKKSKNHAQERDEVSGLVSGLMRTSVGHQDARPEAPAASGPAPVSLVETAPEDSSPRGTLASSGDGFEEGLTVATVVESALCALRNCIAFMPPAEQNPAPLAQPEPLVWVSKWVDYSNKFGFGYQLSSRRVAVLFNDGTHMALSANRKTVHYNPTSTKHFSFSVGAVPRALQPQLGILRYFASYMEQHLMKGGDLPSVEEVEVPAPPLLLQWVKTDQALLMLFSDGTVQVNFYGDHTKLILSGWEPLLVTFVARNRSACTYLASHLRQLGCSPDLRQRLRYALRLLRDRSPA
T2 sequence (P07333 20-972): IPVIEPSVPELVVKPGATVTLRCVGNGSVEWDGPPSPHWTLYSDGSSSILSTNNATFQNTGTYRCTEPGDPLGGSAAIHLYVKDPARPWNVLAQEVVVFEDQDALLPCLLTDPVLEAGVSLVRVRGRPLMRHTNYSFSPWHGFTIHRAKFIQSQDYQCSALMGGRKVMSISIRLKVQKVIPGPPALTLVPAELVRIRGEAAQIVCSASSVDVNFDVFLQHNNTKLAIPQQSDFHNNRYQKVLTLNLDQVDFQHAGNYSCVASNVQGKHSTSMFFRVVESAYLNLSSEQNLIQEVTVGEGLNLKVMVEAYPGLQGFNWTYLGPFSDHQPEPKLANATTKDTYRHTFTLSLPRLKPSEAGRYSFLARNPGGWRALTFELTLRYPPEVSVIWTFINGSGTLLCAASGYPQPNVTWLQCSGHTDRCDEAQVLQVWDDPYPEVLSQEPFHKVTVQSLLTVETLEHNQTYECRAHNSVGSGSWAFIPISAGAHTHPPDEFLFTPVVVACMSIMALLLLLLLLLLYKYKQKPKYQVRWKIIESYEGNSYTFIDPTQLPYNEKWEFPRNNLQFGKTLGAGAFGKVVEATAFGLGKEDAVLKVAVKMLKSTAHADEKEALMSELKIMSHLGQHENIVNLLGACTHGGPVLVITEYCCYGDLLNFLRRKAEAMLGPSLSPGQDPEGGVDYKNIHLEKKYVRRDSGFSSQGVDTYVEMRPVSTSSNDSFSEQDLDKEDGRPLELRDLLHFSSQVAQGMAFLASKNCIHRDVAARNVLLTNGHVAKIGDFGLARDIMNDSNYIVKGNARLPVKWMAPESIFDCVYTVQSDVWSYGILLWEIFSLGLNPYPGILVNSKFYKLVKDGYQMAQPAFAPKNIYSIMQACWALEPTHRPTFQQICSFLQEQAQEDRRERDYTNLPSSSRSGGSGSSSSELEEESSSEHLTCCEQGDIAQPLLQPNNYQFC
T4 sequence (Q15418 whole entry): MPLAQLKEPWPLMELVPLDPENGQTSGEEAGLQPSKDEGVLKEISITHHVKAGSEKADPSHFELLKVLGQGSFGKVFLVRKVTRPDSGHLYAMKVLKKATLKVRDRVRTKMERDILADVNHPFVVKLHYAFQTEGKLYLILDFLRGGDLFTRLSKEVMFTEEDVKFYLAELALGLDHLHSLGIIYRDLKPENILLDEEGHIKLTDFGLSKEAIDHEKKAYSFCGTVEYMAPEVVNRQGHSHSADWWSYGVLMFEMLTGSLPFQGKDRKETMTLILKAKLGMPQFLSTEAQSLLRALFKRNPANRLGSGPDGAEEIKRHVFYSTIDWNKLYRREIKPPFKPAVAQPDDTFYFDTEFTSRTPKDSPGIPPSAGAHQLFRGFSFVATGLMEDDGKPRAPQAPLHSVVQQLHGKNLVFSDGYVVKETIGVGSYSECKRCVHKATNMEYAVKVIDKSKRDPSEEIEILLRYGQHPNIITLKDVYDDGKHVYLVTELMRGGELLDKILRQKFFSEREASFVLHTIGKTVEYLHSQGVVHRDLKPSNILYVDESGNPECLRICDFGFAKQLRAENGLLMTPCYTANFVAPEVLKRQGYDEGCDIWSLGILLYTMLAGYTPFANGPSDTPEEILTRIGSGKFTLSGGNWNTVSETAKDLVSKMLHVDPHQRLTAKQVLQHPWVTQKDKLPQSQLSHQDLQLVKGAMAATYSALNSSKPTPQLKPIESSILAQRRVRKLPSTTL

SMILES: CC(C)(C)N1CCC(c2cc(-c3ccc(F)cc3Cl)c3cc[n+]([O-])c(-c4c(Cl)cccc4Cl)c3n2)CC1 [compound 2]
remaining activity at 10 µM [1]: 105%
remaining activity at 10 µM [2]: 100%
remaining activity at 10 µM [3]: 111%
remaining activity at 10 µM [4]: 104%
remaining activity at 10 µM [5]: 107%
remaining activity at 10 µM [6]: 105%
IC50 [7, 9]: 0.022 µM
IC50 [7, 10]: 0.023 µM and 0.009 µM and 0.055 µM
IC50 [8, 11]: 0.0004 µM
IC50 [8, 12]: 0.00045 µM

SMILES: Cn1cc(-c2cccc(-c3nc(C(=O)NC4C5CC6CC4CC(O)(C6)C5)c(N)nc3N)c2)cn1 (centres unmarked) [compound 4]
remaining activity at 10 µM [1]: 105%
remaining activity at 10 µM [2]: 63%
remaining activity at 10 µM [3]: 95%
remaining activity at 10 µM [4]: 87%
remaining activity at 10 µM [5]: 83%
remaining activity at 10 µM [6]: 104%
IC50 [7, 9]: 0.075 µM
IC50 [7, 10]: 0.052 µM and 0.037 µM and 0.178 µM and 0.1 µM and 0.036 µM and 0.147 µM

SMILES: CS(=O)(=O)N1CCN(c2ccc(Nc3ncc(C(N)=O)c(NC4CC4)n3)cc2)CC1 [compound 5]
remaining activity at 10 µM [1]: 43%
remaining activity at 10 µM [2]: -2%
remaining activity at 10 µM [3]: 63%
remaining activity at 10 µM [4]: 1%
remaining activity at 10 µM [5]: 85%
remaining activity at 10 µM [6]: 53%
IC50 [7, 9]: 0.043 µM
IC50 [7, 10]: 0.026 µM and 0.048 µM and 0.028 µM and 0.054 µM and 0.083 µM

Next, values leading:

remaining activity at 10 µM [1]: 108%
inhibition at 10 µM [2]: 53%
remaining activity at 10 µM [2]: 47%
remaining activity at 10 µM [3]: 101%
remaining activity at 10 µM [4]: 100%
remaining activity at 10 µM [5]: 65%
remaining activity at 10 µM [6]: 97%
IC50 [7, 9]: 0.172 µM
IC50 ([7]; Homo sapiens, NHBE, individual values, donor #1, read-out: Inhibition of TSLP production in NHBE (IC50)): 0.186 µM
IC50 [7, 10]: 0.211 µM and 0.131 µM
IC50 [8, 11]: 0.001 µM
IC50 [8, 12]: 0.00242 µM
IC50 ([8]; individual values, read-out: Cellular activity (IC50, mM) TNFa production in THP-1): 0.00132 µM
SMILES: Cc1ccc(C(=O)NCC2CC2)cc1-c1ccc2c(c1)NC(=O)C21CCCC1 [compound 3]

remaining activity at 10 µM [1]: 114%
inhibition at 10 µM [2]: 74%
remaining activity at 10 µM [2]: 26%
remaining activity at 10 µM [3]: 104%
remaining activity at 10 µM [4]: 132%
remaining activity at 10 µM [5]: 56%
remaining activity at 10 µM [6]: 104%
IC50 [7, 9]: 0.738 µM
IC50 [7, 10]: 0.486 µM and 0.72 µM and 1.15 µM
IC50 [8, 11]: 0.002 µM
IC50 [8, 12]: 0.002 µM
SMILES: COc1c(NC(=O)c2ccc(C)c(-c3nnc4c(NCC(C)(C)C)nccn34)c2)cc(C(C)(C)C)cc1NS(C)(=O)=O [compound 7, reference compound]
